Measured values reported in US11529343B2, “Compositions and methods for identifying and treating dystonia disorders” (DUKE UNIVERSITY, priority 2015, dated 2022).
Peptide text beside a SMILES is read from it. * marks the point of attachment. Cbz = O=C(OCc1ccccc1)*

Legend:
[1] = system: WT Torsin1a localization; assay: Torsin1a localization assay in WT Torsin1a-expressing assay cell line; assay type: cell-based, human; conditions: for percentage of cells with punctate EGFP-Torsin1a signal, WT cell line: single concentration: MG132 10 μM, PBA 20 mM
Description: To develop an assay capable of detecting conditions that correct a dystonia cellular phenotype, two human cell lines were generated that stably expressed EGFP-tagged human wild-type Torsin 1A, or delta-E Torsin1a, from a single cDNA copy integrated at a defined genomic site (FIG. 1, panel 1).
To limit variation in expression levels associated with random integration or transient expression, single copies of either WT or delta-E human TOR1A cDNAs with N-terminal EGFP fusions were inserted at the FRT site in Flp-In™ T-Rex™ 293 cells (Thermo Fisher Scientific #R780-07) via flippase recombinase-mediated cassette exchange according to the manufacturer's recommended protocols. This system includes an inducible expression feature (TetON) that avoids selective pressure for potential toxic effects of chronic expression of mutant proteins (FIG. 1, panel 1).
Flp-In T-Rex 293 cells inducibly expressing either WT or delta-E Torsin1a were maintained in selective media [DMEM-HG (Thermo Fisher Scientific #11965)+1× GlutaMax (Thermo Fisher Scientific #35050-061)+75 μg/mL hygromycin (Thermo Fisher Scientific #10687-010)+15 μg/mL blasticidin S (Thermo Fisher Scientific #R210-01)+10% tetracycline screened FBS (Hyclone #SH30070.03T)+1% penicillin/streptomycin/amphotericin (Mediatech Inc. #30-004-C)]. The cells were maintained at 37° C./5% CO2. All experiments were performed on cells with fewer than 5 passages. HEK 293T cells (ATCC #CRL-3216) were maintained in HEK-T media [DMEM (Thermo Fisher #11995)+10% FBS (Hyclone #SH30070.03)+1× GlutaMAX+1% penicillin/streptomycin/amphotericin] at 37° C./5% CO2. Human dermal fibroblast lines were maintained in FGM media [MEM (Thermo Fisher #11095-080)+15% FBS (Hyclone #SH30070.03)+1% Non-Essential Amino Acids (Lonza #13-114E)+1% penicillin/streptomycin/amphotericin] at 37° C./5% CO2.
This approach provides control over expression levels, avoiding the wide variation typically seen with random genomic integration or transient expression approaches. […] The mutant phenotype was measured as the percentage of cells with one or more EGFP puncta using automated high-content imaging analysis (see infra).
Development and validation of the high-content image analysis and assay performance under high-throughput screening conditions is presented in FIG. 9. […] Automated exposure times for each plate were determined by setting a target saturation of 25% in channel 1 in wells containing tetracycline-induced delta-E cells. Detected cells were gated according to nuclear area, length-to-width ratio, and perimeter-to-area ratio. […] EGFP fluorescence (Ch2: excitation 488 nm; emission 509 nm) was used for puncta detection. Automated exposure times for each plate were determined by setting a target saturation of 35% in channel 2 in wells containing induced delta-E cells. […]

[2] = system: striatal mGluR5 LTD; assay: Long-term depression in cortico-striatal synapse, acute brain slices of WT mice; assay type: cell-based; conditions: pre-incubation 5 nM, 1 hr
Method: (§1) To directly test these predictions, whole-cell electrophysiology of striatal projection neurons was performed in acute brain slices to induce long-term depression in the presence of eIF2-alpha pathway-modulating drugs. Acute horizontal brain slices from the progeny of heterozygous ΔE Torsin1a knockin x homozygous Drd1a-tdTomato mice (age P15-21) were prepared largely as described in (Trusel et al., 2015, Cell Rep. 13, 1353-65). LTD was induced as in Trusel et al., 2015, with modifications.
(§2) Heterozygous delGAG Torsin1a knockin mice (courtesy of Dr. W. Dauer, University of Michigan) were crossed with homozygous Drd1a-tdTomato mice (Jackson Labs) and the progeny was used at postnatal day 15-21 for experiments. […]
(§3) Single slices were transferred to a recording chamber and superfused continuously with ACSF containing 50 μM picrotoxin at 32° C. and 3-4 mL/min. […] Evoked excitatory postsynaptic potentials (EPSPs) were recorded in the dorsolateral striatum, while stimulating every 30 seconds with a concentric bipolar electrode (FHC) in cortical layer V (see Trusel et al., Cell Reports, 2015). […] Baseline EPSPs were recorded for at least 10 min or until a stable baseline was reached. Data were acquired by pClamp v10 and analyzed using Clampfit v10.4, Origin v8.0, and GraphPad Prism v6.

[3] = system: delta-E Torsin1a localization; assay: Delta-E Torsin1a mislocalization assay (% cells with EGFP puncta, high-content imaging); assay type: cell-based, human; conditions: single concentration: MG132 10 μM, PBA 20 mM
[4] = system: striatal mGluR5 LTD; assay: Long-term depression in cortico-striatal synapse, brain slices of heterozygous DYT1 knockin mice; assay type: cell-based; conditions: 20 μM, versus vehicle
Method: as §1, §2, §3

Structure (SMILES) | percentage of cells with punctate EGFP-Torsin1a signal, WT cell line [1] | percentage of cells with punctate EGFP-Torsin1a signal, delta-E cell line [3] | other results
O=C(COc1ccc(Cl)cc1)NC1CCC(NC(=O)COc2ccc(Cl)cc2)CC1 (centres unmarked) [ISRIB] | – | – | Torsin1a expression levels, in words ([1]; WT cell line): without effects on Torsin1a expression levels; effect on WT Torsin1a localization (cells with puncta), in words ([1]; dose response, WT cell line): dose-dependent increase in cells with punctate Torsin1a localization; effect on LTD in WT brain slices [2]: robustly inhibited LTD
CC(C)C[C@@H](C=O)NC(=O)[C@H](CC(C)C)NC(=O)[C@H](CC(C)C)NC(=O)OCc1ccccc1 [MG132] (Cbz-Leu-Leu-Leu-aldehyde) | significantly increased | significantly increased | –
O=C(O)CCCc1ccccc1 [PBA, phenylbutyric acid] | ameliorated the burden of cells with punctate pathology | ameliorated the burden of cells with punctate pathology | –
O=C(/C=C/c1ccccc1)NC(NC(=S)Nc1ccc(Cl)cc1)C(Cl)(Cl)Cl (centres unmarked) [Sal-003] | – | – | effect on LTD in brain slices heterozygous for the DYT1 knockin mutation (delGAG) [4]: restored long-term depression
